The source made the active and inactive calls. No cut-off for these calls is given here.
Tests used:
Type in all cases: cell-based
[1] = target: T1, Bile acid receptor (Homo sapiens) (UniProt Q96RI1); assay: Agonist activity at Homo sapiens (human) FXR ligand binding domain expressed in HepG2 cells assessed as transactivation of SHP gene expression at 100 nM after 48 hr by luciferase reporter gene assay relative to control
T1 sequence (whole entry): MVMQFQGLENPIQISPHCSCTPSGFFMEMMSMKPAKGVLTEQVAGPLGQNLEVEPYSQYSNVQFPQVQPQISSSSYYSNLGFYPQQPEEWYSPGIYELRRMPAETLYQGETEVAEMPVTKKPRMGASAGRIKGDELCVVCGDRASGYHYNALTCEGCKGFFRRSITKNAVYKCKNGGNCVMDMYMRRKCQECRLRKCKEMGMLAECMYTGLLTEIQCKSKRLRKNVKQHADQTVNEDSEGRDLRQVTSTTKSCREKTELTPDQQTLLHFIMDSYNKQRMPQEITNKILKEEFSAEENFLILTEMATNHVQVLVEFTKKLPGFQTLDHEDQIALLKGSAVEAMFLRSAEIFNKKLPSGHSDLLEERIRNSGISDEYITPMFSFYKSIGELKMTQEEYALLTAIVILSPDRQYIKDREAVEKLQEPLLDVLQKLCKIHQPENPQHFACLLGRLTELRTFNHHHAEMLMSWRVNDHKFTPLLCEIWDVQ

[2] = system: HepG2; assay: Cytotoxicity against Homo sapiens (human) HepG2 cells after 48 hr; conditions: hepg2, 48 h
[3] = target: T1, Bile acid receptor (Homo sapiens); assay: Agonist activity at Homo sapiens (human) FXR ligand binding domain expressed in HepG2 cells assessed as transactivation of SHP gene expression at 10 uM after 48 hr by luciferase reporter gene assay relative to control
[4] = target: T2, Oxysterols receptor LXR-beta (Homo sapiens) (UniProt P55055); assay: Agonist activity at Homo sapiens (human) LXRbeta expressed in HepG2 cells assessed as transactivation of ABCA1 gene expression after 48 hr by luciferase reporter gene assay
T2 sequence (whole entry): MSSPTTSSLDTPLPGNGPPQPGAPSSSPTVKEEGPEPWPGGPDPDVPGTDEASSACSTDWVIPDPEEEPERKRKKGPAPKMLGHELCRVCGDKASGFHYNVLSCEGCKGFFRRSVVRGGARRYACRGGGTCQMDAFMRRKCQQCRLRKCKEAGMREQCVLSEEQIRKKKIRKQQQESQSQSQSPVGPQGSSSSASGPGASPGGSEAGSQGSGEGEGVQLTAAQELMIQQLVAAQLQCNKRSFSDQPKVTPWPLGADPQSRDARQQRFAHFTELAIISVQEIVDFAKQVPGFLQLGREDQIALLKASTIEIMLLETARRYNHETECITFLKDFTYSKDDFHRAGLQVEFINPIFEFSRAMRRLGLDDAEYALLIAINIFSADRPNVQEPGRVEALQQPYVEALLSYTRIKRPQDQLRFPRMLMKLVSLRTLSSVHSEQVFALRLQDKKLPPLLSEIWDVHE

[5] = target: T1, Bile acid receptor (Homo sapiens); assay: Agonist activity at Homo sapiens (human) FXR ligand binding domain expressed in HepG2 cells assessed as transactivation of GAL4 gene expression at 100 nM after 48 hr by luciferase reporter gene assay relative to control
[6] = target: T3, Oxysterols receptor LXR-alpha (Homo sapiens) (UniProt Q13133); assay: Agonist activity at Homo sapiens (human) LXRalpha expressed in HepG2 cells assessed as transactivation of SREBP1c gene expression after 48 hr by luciferase reporter gene assay
T3 sequence (whole entry): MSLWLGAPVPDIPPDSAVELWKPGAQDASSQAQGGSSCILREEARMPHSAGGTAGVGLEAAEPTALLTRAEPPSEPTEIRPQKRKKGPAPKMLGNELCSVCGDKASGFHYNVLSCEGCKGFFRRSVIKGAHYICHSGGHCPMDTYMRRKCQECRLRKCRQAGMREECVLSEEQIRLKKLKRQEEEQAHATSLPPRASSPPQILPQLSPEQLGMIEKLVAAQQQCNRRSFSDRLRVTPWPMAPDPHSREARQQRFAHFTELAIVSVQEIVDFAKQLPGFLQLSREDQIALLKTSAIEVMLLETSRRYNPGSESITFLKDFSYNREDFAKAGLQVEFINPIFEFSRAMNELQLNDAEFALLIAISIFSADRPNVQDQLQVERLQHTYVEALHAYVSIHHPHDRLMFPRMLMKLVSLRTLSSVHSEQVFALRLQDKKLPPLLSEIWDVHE

[7] = target: T3, Oxysterols receptor LXR-alpha (Homo sapiens); assay: Agonist activity at Homo sapiens (human) LXRalpha expressed in HepG2 cells assessed as decrease in PEPCK gene transactivation at 10 uM after 48 hr by luciferase reporter gene assay relative to control; design: scale not given: the % may be the effect or the level left
[8] = target: T1, Bile acid receptor (Homo sapiens); assay: Agonist activity at Homo sapiens (human) FXR ligand binding domain expressed in HepG2 cells assessed as transactivation of GAL4 gene expression at 1 uM after 48 hr by luciferase reporter gene assay relative to control
[9] = target: T3, Oxysterols receptor LXR-alpha (Homo sapiens); assay: Agonist activity at Homo sapiens (human) LXRalpha expressed in HepG2 cells assessed as transrepression of PEPCK gene expression after 48 hr by luciferase reporter gene assay
[10] = target: T3, Oxysterols receptor LXR-alpha (Homo sapiens); assay: Agonist activity at Homo sapiens (human) LXRalpha expressed in HepG2 cells assessed as transactivation of SREBP1c gene expression at 10 uM after 48 hr by luciferase reporter gene assay relative to control
[11] = target: T3, Oxysterols receptor LXR-alpha (Homo sapiens); assay: Agonist activity at Homo sapiens (human) LXRalpha expressed in HepG2 cells assessed as PEPCK gene expression at 100 nM after 48 hr by luciferase reporter gene assay relative to control
[12] = target: T2, Oxysterols receptor LXR-beta (Homo sapiens); assay: Agonist activity at Homo sapiens (human) LXRbeta expressed in HepG2 cells assessed as transactivation of ABCA1 gene expression at 1 uM after 48 hr by luciferase reporter gene assay relative to control
[13] = target: T2, Oxysterols receptor LXR-beta (Homo sapiens); assay: Agonist activity at Homo sapiens (human) LXRbeta expressed in HepG2 cells assessed as transactivation of ABCA1 gene expression at 10 uM after 48 hr by luciferase reporter gene assay relative to control
[14] = target: T3, Oxysterols receptor LXR-alpha (Homo sapiens); assay: Agonist activity at Homo sapiens (human) LXRalpha expressed in HepG2 cells assessed as transactivation of ABCA1 gene expression after 48 hr by luciferase reporter gene assay
[15] = target: T3, Oxysterols receptor LXR-alpha (Homo sapiens); assay: Agonist activity at Homo sapiens (human) LXRalpha expressed in HepG2 cells assessed as transactivation of CYP7A1 gene expression at 10 uM after 48 hr by luciferase reporter gene assay relative to vehicle-treated control
[16] = target: T3, Oxysterols receptor LXR-alpha (Homo sapiens); assay: Agonist activity at Homo sapiens (human) LXRalpha expressed in HepG2 cells assessed as transactivation of SREBP1c gene expression at 1 uM after 48 hr by luciferase reporter gene assay relative to control
[17] = target: T3, Oxysterols receptor LXR-alpha (Homo sapiens); assay: Agonist activity at Homo sapiens (human) LXRalpha expressed in HepG2 cells assessed as transactivation of ABCA1 gene expression at 10 uM after 48 hr by luciferase reporter gene assay relative to control

| Activity [1] | fold change (FC) [3] | Activity [4] | Activity [5] | Activity [6] | Activity [7] [%] | fold change (FC) [8] | Activity [9] | fold change (FC) [10] | Activity [11] | fold change (FC) [12] | fold change (FC) [13] | Activity [14] | fold change (FC) [15] | fold change (FC) [16] | fold change (FC) [17] | fold change (FC) [11] | SMILES | Activity [2] |
| --- | --- | --- | --- | --- | --- | --- | --- | --- | --- | --- | --- | --- | --- | --- | --- | --- | --- | --- |
| inactive | 2.3 | Dose-dependent effect | inactive | Dose-dependent effect | 58 | 1.6 | Dose-dependent effect | 3.42 | inactive | 1.5 | 1.5 | Dose-dependent effect | 2 | 2.26 | 1.9 | – | C=C1C(=O)O[C@@H]2C[C@H](C)[C@@]3(O)C[C@H](O)[C@@](C)(C[C@@H](OC(=O)C(C)C)[C@@H]12)O3 [TAGITININ A] | Non-toxic |
| – | – | – | – | – | – | – | – | – | – | – | – | – | – | – | – | – | C=C1C(=O)O[C@@H]2/C=C(/C)C(=O)/C=C/[C@](C)(O)C[C@@H](OC(=O)C(C)C)[C@@H]12 [TAGITININ C] | Toxic |
| inactive | 2.41 | Dose-dependent effect | inactive | Dose-dependent effect | 46 | 1.6 | Dose-dependent effect | 4.52 | – | 1.5 | 2.2 | Dose-dependent effect | 2 | 2.3 | 1.7 | 0.94 | C=C1C(=O)O[C@@H]2C[C@H](C)[C@@]3(O)CC[C@@](C)(C[C@@H](OC(=O)C(C)C)[C@@H]12)O3 [TIROTUNDIN] | Non-toxic |

Reference: ChEMBL document CHEMBL3046494, “Identification of liver X receptor and farnesoid X receptor dual agonists from Tithonia diversifolia” (Med Chem Res, 2013)
